Experimental data as given in patent US8222202B2 (priority 2006, dated 2012).
Like-named read-outs stand apart in the source and are kept apart here. Starred links: 1 amine or outer side, 2 acyl side, 3 side chain; linkers in the order of their positions; H or OH if unused. Positions of bridges follow the written chain, without caps; N, C: chain ends. Non-standard residues stand in square brackets, D forms with d. Residues, ends and D or L forms follow the SMILES beside them. *: point of attachment. X3 = CC(C)CCNCCC[C@H](N[*:1])C(=O)[*:2]; Ala(2-furyl) = N[C@@H](Cc1ccco1)C(=O)O; Orn(iPr) = CC(C)NCCC[C@H](N)C(=O)O; 2Thi = N[C@@H](Cc1cccs1)C(=O)O; 3Thi = N[C@@H](Cc1ccsc1)C(=O)O; Aad = N[C@@H](CCCC(=O)O)C(=O)O; NH(3-hydroxypropyl) = OCCCN*; Orn = NCCC[C@H](N)C(=O)O; Dab = NCC[C@H](N)C(=O)O

Experiments:
[1] = molecular target: T1, human oxytocin (hOT) receptor (Homo sapiens, UniProt P30559); experiment: luciferase-based transcriptional reporter assay, selectivity hOT versus hV1a; assay type: cell-based
T1 construct: expressed in transfected cells
T1 sequence (P30559 1-389): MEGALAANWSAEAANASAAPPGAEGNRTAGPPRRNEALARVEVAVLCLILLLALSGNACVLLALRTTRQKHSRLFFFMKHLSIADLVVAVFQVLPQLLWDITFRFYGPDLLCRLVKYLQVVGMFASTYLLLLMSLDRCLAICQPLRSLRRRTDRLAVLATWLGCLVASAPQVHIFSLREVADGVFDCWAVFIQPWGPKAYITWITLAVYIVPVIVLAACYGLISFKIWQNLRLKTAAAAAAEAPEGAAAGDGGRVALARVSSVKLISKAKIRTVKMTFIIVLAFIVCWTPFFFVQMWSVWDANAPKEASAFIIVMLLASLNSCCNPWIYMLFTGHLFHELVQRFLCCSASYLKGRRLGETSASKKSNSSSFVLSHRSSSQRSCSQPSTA
Method: (§1) Agonist activity of compounds on the hV1a receptor was determined in a transcriptional reporter assay by transiently transfecting a hV1a receptor expression DNA into HEK-293 cells in concert with a reporter DNA containing intracellular calcium responsive promoter elements regulating expression of firefly luciferase. See Boss, V., Talpade, D. J., Murphy, T. J. J. Biol. Chem. 1996, May 3; 271(18), 10429-10432 for further guidance on this assay. […] To determine selectivity, compounds were tested in luciferase-based transcriptional reporter assays expressing the human oxytocin (hOT) receptor. Assays for other receptors (hV2, hV1b, rat V1a and rat V2) were also conducted.
(§2) The EC50 value given is the geometric mean expressed in nanomol/L (nM). Selectivity values are given as EC50 ratios.

[2] = tested on: anaesthetised Sprague-Dawley male rats; experiment: in vivo duration of action, blood pressure test in anaesthetised rats; parameters: species or system rat; conditions: ratio of decay rate of diastolic blood pressure response, AVP 0.1 nmol/kg i.v. to equieffective dose of compound; dibenamine-pretreated rats
Method: Blood pressure tests were carried out on anaesthetised Sprague-Dawley male rats (weighing 270-300 g) with catheterised jugular vein and carotid artery. The catheterised carotid artery was used to continuously monitor blood pressure and the jugular vein was used for administration of the compounds tested. Rats received intravenous injections of dibenamine prior to dosing to enhance their responsiveness to V1a receptor agonists (cf. Dekanski, J., Br. J. Pharmacol. 1952, 7, 567-572). […] Dosing intervals were set as time for the blood pressure to decrease to a stable baseline.
Determination of duration of action was based on the decay rate of diastolic arterial blood pressure transient increase. Specifically, for an exponential decay of plasma concentration, it can be shown that, if the response is measured beyond the distribution phase, the rate of decay near the EC50 is linear and inversely proportional to the elimination half-life (Rowland, M. and Tozer, T. in “Clinical Pharmacokinetics, Concepts and Applications”, 3rd ed., Lippincott Williams & Wilkins, Philadelphia, 1995).

[3] = molecular target: T2, hV1a receptor (Homo sapiens, UniProt P37288); experiment: hV1a receptor transcriptional reporter (luciferase) agonist assay; assay type: cell-based
T2 construct: expressed in transfected cells; host or cells: HEK-293
Method: as §1, §2

[4] = class symbol, agonist efficacy at hOT receptor compared to AVP
[5] = HEK-293 cells transiently transfected with hV1a receptor, 5 hours exposure, geometric mean, read-out: EC50 hV1a receptor

T2 sequence (P37288 whole entry): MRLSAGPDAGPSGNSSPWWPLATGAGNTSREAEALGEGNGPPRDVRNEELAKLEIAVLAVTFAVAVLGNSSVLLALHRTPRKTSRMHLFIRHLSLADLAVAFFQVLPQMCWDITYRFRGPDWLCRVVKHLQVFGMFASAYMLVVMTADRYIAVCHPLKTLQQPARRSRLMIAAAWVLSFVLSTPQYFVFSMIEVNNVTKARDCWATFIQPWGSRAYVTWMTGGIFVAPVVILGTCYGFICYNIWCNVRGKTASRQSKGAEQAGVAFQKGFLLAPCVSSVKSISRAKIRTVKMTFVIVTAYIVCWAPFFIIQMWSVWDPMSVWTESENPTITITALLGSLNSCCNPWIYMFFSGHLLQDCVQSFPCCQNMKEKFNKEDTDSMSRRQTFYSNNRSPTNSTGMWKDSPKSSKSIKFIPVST

## CC[C@H](C)[C@@H]1NC(=O)[C@H](Cc2ccccc2)NC(=O)[C@@H](N)CSSC[C@@H](C(=O)N2CCC[C@H]2C(=O)N[C@@H](CCCNC(C)C)C(=O)NCC(N)=O)NC(=O)[C@H](CC(N)=O)NC(=O)[C@H](CCCC(N)=O)NC1=O [Compound 1, [Phe^2,Hgn^4,Orn(i-Pr)^8]VT] (H-CFI[Aad](NH2)NCP[Orn(iPr)]G-NH2; disulfide 1-6; N-terminus and C-terminus assumed)
[1]; [4]
  selectivity hOT/hV1a: + (selective hV1a receptor agonist; EC50 hOT/hV1a ratio not determined due to very low agonist efficacy (<30% compared to AVP) at the hOT receptor)
[2]
  in vivo duration relative to AVP: 1.7

## CC[C@H](C)[C@@H]1NC(=O)[C@H](Cc2ccccc2)NC(=O)[C@@H](N)CSSC[C@@H](C(=O)N2CCC[C@H]2C(=O)N[C@@H](CCCN)C(=O)NCC(N)=O)NC(=O)[C@H](CC(N)=O)NC(=O)[C@H](CC(=O)NCCCO)NC1=O [Compound 2] (H-CFID(NH(3-hydroxypropyl))NCP[Orn]G-NH2; disulfide 1-6)
[1]
  selectivity hOT/hV1a: + (key: +: selective hV1a receptor agonist; EC50 hOT/hV1a ratio not determined due to very low agonist efficacy (<30% compared to AVP) at the hOT receptor)
[3]
  EC50: 1.18 nM
[2]
  in vivo duration relative to AVP: 1.7

## CCNC(=O)C[C@@H]1NC(=O)[C@H]([C@@H](C)CC)NC(=O)[C@H](Cc2ccccc2)NC(=O)[C@@H](N)CSSC[C@@H](C(=O)N2CCC[C@H]2C(=O)N[C@@H](CCN)C(=O)NCC(N)=O)NC(=O)[C@H](CC(N)=O)NC1=O [Compound 4, [Phe^2,Asn(Et)^4, Dbu^8]VT] (H-CFID(NHEt)NCP[Dab]G-NH2; disulfide 1-6; N-terminus and C-terminus assumed)
[1]; [4]
  selectivity hOT/hV1a: + (selective hV1a receptor agonist; EC50 hOT/hV1a ratio not determined due to very low agonist efficacy (<30% compared to AVP) at the hOT receptor)
[2]
  in vivo duration relative to AVP: 1.8

## CC[C@H](C)[C@@H]1NC(=O)[C@H](Cc2ccco2)NC(=O)[C@@H](N)CSSC[C@@H](C(=O)N2CCC[C@H]2C(=O)N[C@@H](CCCN)C(=O)NCC(N)=O)NC(=O)[C@H](CC(N)=O)NC(=O)[C@H](CCC(N)=O)NC1=O [Compound 32] (H-C[Ala(2-furyl)]IQNCP[Orn]G-NH2; disulfide 1-6)
[2]
  in vivo duration relative to AVP: 2.1

## CC[C@H](C)[C@@H]1NC(=O)[C@H](Cc2cccs2)NC(=O)[C@@H](N)CSSC[C@@H](C(=O)N2CCC[C@H]2C(=O)N[C@@H](CCCN)C(=O)NCC(N)=O)NC(=O)[C@H](CC(N)=O)NC(=O)[C@H](CC(N)=O)NC1=O [Compound 33] (H-C[2Thi]INNCP[Orn]G-NH2; disulfide 1-6; N-terminus and C-terminus assumed)
[1]; [4]
  selectivity hOT/hV1a: + (selective hV1a receptor agonist; EC50 hOT/hV1a ratio not determined due to very low agonist efficacy (<30% compared to AVP) at the hOT receptor)
[3]; [5]
  EC50: 14.6 nM

## CC[C@H](C)[C@@H]1NC(=O)[C@H](Cc2ccsc2)NC(=O)[C@@H](N)CSSC[C@@H](C(=O)N2CCC[C@H]2C(=O)N[C@@H](CCCN)C(=O)NCC(N)=O)NC(=O)[C@H](CC(N)=O)NC(=O)[C@H](CC(N)=O)NC1=O [Compound 35] (H-C[3Thi]INNCP[Orn]G-NH2; disulfide 1-6)
[1]; [4]
  selectivity hOT/hV1a: + (selective hV1a receptor agonist; EC50 hOT/hV1a ratio not determined due to very low agonist efficacy (<30% compared to AVP) at the hOT receptor)
[3]; [5]
  EC50: 7.3 nM

## CC[C@H](C)[C@@H]1NC(=O)[C@H](Cc2cccs2)NC(=O)[C@@H](N)CSSC[C@@H](C(=O)N2CCC[C@H]2C(=O)N[C@@H](CCN)C(=O)NCC(N)=O)NC(=O)[C@H](CC(N)=O)NC(=O)[C@H](CC(N)=O)NC1=O [Compound 36] (H-C[2Thi]INNCP[Dab]G-NH2; disulfide 1-6; N-terminus and C-terminus assumed)
[1]; [4]
  selectivity hOT/hV1a: + (selective hV1a receptor agonist; EC50 hOT/hV1a ratio not determined due to very low agonist efficacy (<30% compared to AVP) at the hOT receptor)
[3]; [5]
  EC50: 11.5 nM

## CC[C@H](C)[C@@H]1NC(=O)[C@H](Cc2ccsc2)NC(=O)[C@@H](N)CSSC[C@@H](C(=O)N2CCC[C@H]2C(=O)N[C@@H](CCN)C(=O)NCC(N)=O)NC(=O)[C@H](CC(N)=O)NC(=O)[C@H](CC(N)=O)NC1=O [Compound 37] (H-C[3Thi]INNCP[Dab]G-NH2; disulfide 1-6; N-terminus and C-terminus assumed)
[1]; [4]
  selectivity hOT/hV1a: + (selective hV1a receptor agonist; EC50 hOT/hV1a ratio not determined due to very low agonist efficacy (<30% compared to AVP) at the hOT receptor)
[3]; [5]
  EC50: 7.45 nM

## CC[C@H](C)[C@@H]1NC(=O)[C@H](Cc2ccco2)NC(=O)[C@@H](N)CSSC[C@@H](C(=O)N2CCC[C@H]2C(=O)N[C@@H](CCCN)C(=O)NCC(N)=O)NC(=O)[C@H](CC(N)=O)NC(=O)[C@H](CC(N)=O)NC1=O [Compound 38] (H-C[Ala(2-furyl)]INNCP[Orn]G-NH2; disulfide 1-6; N-terminus and C-terminus assumed)
[1]; [4]
  selectivity hOT/hV1a: + (selective hV1a receptor agonist; EC50 hOT/hV1a ratio not determined due to very low agonist efficacy (<30% compared to AVP) at the hOT receptor)
[3]; [5]
  EC50: 10.1 nM

## CC[C@H](C)[C@@H]1NC(=O)[C@H](Cc2ccco2)NC(=O)[C@@H](N)CSSC[C@@H](C(=O)N2CCC[C@H]2C(=O)N[C@@H](CCCNC(C)C)C(=O)NCC(N)=O)NC(=O)[C@H](CC(N)=O)NC(=O)[C@H](CC(N)=O)NC1=O [Compound 42] (H-C[Ala(2-furyl)]INNCP[Orn(iPr)]G-NH2; disulfide 1-6)
[1]
  selectivity hOT/hV1a: + (key: +: selective hV1a receptor agonist; EC50 hOT/hV1a ratio not determined due to very low agonist efficacy (<30% compared to AVP) at the hOT receptor)
[3]
  EC50: 6.25 nM

## CC[C@H](C)[C@@H]1NC(=O)[C@H](Cc2cccs2)NC(=O)[C@@H](N)CSSC[C@@H](C(=O)N2CCC[C@H]2C(=O)N[C@@H](CCCNC(C)C)C(=O)NCC(N)=O)NC(=O)[C@H](CC(N)=O)NC(=O)[C@H](CC(N)=O)NC1=O [Compound 43] (H-C[2Thi]INNCP[Orn(iPr)]G-NH2; disulfide 1-6; N-terminus and C-terminus assumed)
[1]; [4]
  selectivity hOT/hV1a: + (selective hV1a receptor agonist; EC50 hOT/hV1a ratio not determined due to very low agonist efficacy (<30% compared to AVP) at the hOT receptor)
[3]; [5]
  EC50: 13.7 nM

## CC[C@H](C)[C@@H]1NC(=O)[C@H](Cc2ccco2)NC(=O)[C@@H](N)CSSC[C@@H](C(=O)N2CCC[C@H]2C(=O)N[C@@H](CCN)C(=O)NCC(N)=O)NC(=O)[C@H](CC(N)=O)NC(=O)[C@H](CC(N)=O)NC1=O [Compound 44] (H-C[Ala(2-furyl)]INNCP[Dab]G-NH2; disulfide 1-6; N-terminus and C-terminus assumed)
[1]; [4]
  selectivity hOT/hV1a: + (selective hV1a receptor agonist; EC50 hOT/hV1a ratio not determined due to very low agonist efficacy (<30% compared to AVP) at the hOT receptor)
[3]; [5]
  EC50: 14.5 nM

## CC[C@H](C)[C@@H]1NC(=O)[C@H](Cc2ccccc2)NC(=O)[C@@H](N)CSSC[C@@H](C(=O)N2CCC[C@H]2C(=O)N[C@@H](CCCNCCC(C)C)C(=O)NCC(N)=O)NC(=O)[C@H](CC(N)=O)NC(=O)[C@H](CCC(N)=O)NC1=O [Compound 45] (H-CFIQNCP[X3]G-NH2; disulfide 1-6; N-terminus and C-terminus assumed)
[1]; EC50 ratio
  selectivity hOT/hV1a: 18
[3]
  EC50: 1.65 nM

## CCNC(=O)C[C@@H]1NC(=O)[C@H]([C@@H](C)CC)NC(=O)[C@H](Cc2ccccc2)NC(=O)[C@@H](N)CSSC[C@@H](C(=O)N2CCC[C@H]2C(=O)N[C@@H](CCCN)C(=O)NCC(N)=O)NC(=O)[C@H](CC(N)=O)NC1=O [Compound 48] (H-CFID(NHEt)NCP[Orn]G-NH2; disulfide 1-6; N-terminus and C-terminus assumed)
[1]; [4]
  selectivity hOT/hV1a: + (selective hV1a receptor agonist; EC50 hOT/hV1a ratio not determined due to very low agonist efficacy (<30% compared to AVP) at the hOT receptor)
[3]; [5]
  EC50: 5.7 nM

## CC[C@H](C)[C@@H]1NC(=O)[C@H](Cc2ccccc2)NC(=O)[C@@H](N)CSSC[C@@H](C(=O)N2CCC[C@H]2C(=O)N[C@@H](CCCN)C(=O)NCC(N)=O)NC(=O)[C@H](CC(N)=O)NC(=O)[C@H](CC(=O)NC)NC1=O [Compound 49] (H-CFID(NHMe)NCP[Orn]G-NH2; disulfide 1-6; N-terminus and C-terminus assumed)
[1]; [4]
  selectivity hOT/hV1a: + (selective hV1a receptor agonist; EC50 hOT/hV1a ratio not determined due to very low agonist efficacy (<30% compared to AVP) at the hOT receptor)
[3]; [5]
  EC50: 3.58 nM

## [Phe2,Orn8]OT [[Phe2, Orn8]OT, reference compound]
[1]; EC50 ratio
  selectivity hOT/hV1a: 60
[2]
  in vivo duration relative to AVP: 1.9
